Laboratory results as given in ChEMBL document CHEMBL1132013, “Synthesis, computer modeling and biological evaluation of novel protein kinase C agonists based on a 7-membered lactam moiety” (Bioorg Med Chem Lett, 1999).

Columns and labels:
[1] = test system: HL-60; test: Inhibition of HL-60 monocyte cell proliferation; Range = 1-8 uM; type: functional; conditions: Homo sapiens, read-out: ED50 (the source's name)
[2] = molecular target: T1, Protein kinase C alpha type (Homo sapiens, UniProt P17252); test: (§1) Displacement of [3H]PDBu from human recombinant Protein kinase C alpha
[3] = test system: HL-60; test: Inhibition of HL-60 monocyte cell proliferation; Range = 0.3-0.7 uM; type: functional; conditions: Homo sapiens, read-out: ED50 (the source's name)
[4] = molecular target: T1, Protein kinase C alpha type; test: as §1; remark: listed apart in the source
[5] = test system: HL-60; test: Inhibition of HL-60 monocyte cell proliferation; type: functional; conditions: Homo sapiens, read-out: ED50 (the source's name)

| SMILES | EC50 [1] [µM] | Ki [2] [µM] | EC50 [3] [µM] | Ki [4] [µM] | EC50 [5] [µM] |
| --- | --- | --- | --- | --- | --- |
| CC(C)CCCC(C)[C@H]1CC[C@H]2[C@@H]3CC[C@H]4CC(=O)N[C@H](CO)C[C@]4(C)[C@H]3CC[C@]12C (some centres undefined) | 8 | > 0.5 | – | – | – |
| C[C@@]12CCC[C@H]1[C@@H]1CC[C@H]3CC(=O)N[C@H](CO)C[C@]3(C)[C@H]1CC2 | 8 | > 0.5 | – | – | – |
| CC(C)CCCC(C)[C@H]1CC[C@H]2[C@@H]3CC[C@H]4CC(=O)N[C@@H](CO)C[C@]4(C)[C@H]3CC[C@]12C (some centres undefined) | 8 | > 0.5 | – | – | – |
| CCCCC1(CCCC)CC[C@H]2CC(=O)N[C@H](CO)C[C@]2(C)C1 | – | 0.06 | 0.7 | 0.08 | – |
| CCCCC1(CCCC)CC[C@H]2CC(=O)N[C@@H](CO)C[C@]2(C)C1 | – | 0.19 | 0.7 | – | – |
| CCCC[C@@H]1C(=O)N[C@H](CO)C[C@]2(C)CC(CCCC)(CCCC)CC[C@@H]12 | – | 0.017 | – | – | 0.15 |
| CCCCCCCC[C@@H]1C(=O)N[C@H](CO)C[C@]2(C)CC(CCCC)(CCCC)CC[C@@H]12 | – | 0.011 | – | – | 0.15 |
| CCCCC1(CCCC)CC[C@H]2[C@H](C)C(=O)N[C@H](CO)C[C@]2(C)C1 | – | 0.021 | – | – | 0.15 |
| C[C@@]12CCC[C@H]1[C@@H]1CC[C@H]3CC(=O)N[C@@H](CO)C[C@]3(C)[C@H]1CC2 | 8 | > 0.5 | – | – | – |
